Measurements from ChEMBL document CHEMBL3822367, “Use of Photosensitizers in Semisolid Formulations for Microbial Photodynamic Inactivation” (2016).

Test system: Mycobacterium tuberculosis variant bovis BCG
Experiment: Antimycobacterial activity against Mycobacterium bovis BCG Pasteur ATCC 35734 assessed as cell survival at 5 uM after 1 hr followed by irradiation with light at 60 to 100 J/cm'2
Type: functional, organism-based

## VERTEPORFIN
  Survival: 26%
